Legend:
[1] = tested on: patient with light to moderate OSA; assay: Controlled repeated dosing, repeated withdrawal study of zonisamide with polysomnographic recording; assay type: in vivo, human; conditions: for Sat <90%/hr (number of episodes reaching an oxygen saturation below 90% per hour of sleep): Day 0 baseline 4; for B-gluc (blood glucose concentration): Day 0 baseline 6.7; for CSAI (central sleep apnea index): Day 0 baseline 8; for AI (apnea index, number of obstructive apneas per hour of sleep): Day 0 baseline 16; for HI (hypopnea index, number of obstructive hypopneas per hour of sleep): Day 0 baseline 22; for BMI (body mass index): Day 0 baseline 26.5; for AHI (apnea/hypopnea index): Day 0 baseline 38; for MinSat (lowest oxygen saturation value reached during the sleep recording): Day 0 baseline 82; for DBP (diastolic blood pressure): Day 0 baseline 95; for SBP (systolic blood pressure): Day 0 baseline 165
Procedure: A controlled repeated dosing, repeated withdrawal study of zonisamide was undertaken in a patient (BMI 26.5) with light to moderate OSA (A/H index, 30 and 35 on previous screening). […] A baseline polysomographic recording (standard sleep montage, nasal pressure recording) was undertaken at baseline and zonisamide therapy was started at 100 mg o.d. orally (Zonegran® capsules) with an increase to 400 mg after two weeks and finally to 600 mg at the end of 12 weeks. Repeat sleep recordings were undertaken after 19 days (5 days on 400 mg) and after 90 days (6 days on 600 mg). The following key index data were recorded (Table 1).

[2] = cited from earlier work
[3] = tested on: three male patients with light to moderate/severe OSA; assay: Uncontrolled repeated dosing study of zonisamide with polysomnography; assay type: in vivo, human; conditions: for AHI, mean for all patients: baseline mean 30; for BMI, mean for all patients: baseline mean 32; for Sat. min, mean for all patients: baseline mean 84
Procedure: Uncontrolled repeated dosing of zonisamide. An uncontrolled study of three male patients (mean BMI at baseline 32) with light to moderate/severe OSA treated with zonisamide up to an average of 177 days was performed. Polysomnography (standard sleep montage, nasal pressure recording) was undertaken at baseline. Zonisamide therapy was started at 50 or 100 mg o.d. orally (Zonegran® capsules). […] A repeat sleep study (follow-up 1) was undertaken. A further sleep study (follow-up 2) was performed after 165, 218 and 149 days at doses of 400, 600 and 200 mg, respectively. The follow-up 2 measurements were thus performed at a pharmacokinetical steady-state.

[4] = Day 19 (5 days on 400 mg o.d. orally)
[5] = Day 90 (6 days on 600 mg orally)
[6] = during treatment, 100 to 600 mg orally
[7] = starting already after 10 days of treatment
[8] = follow-up 1, mean dose 200 mg, mean 33 days of treatment
[9] = follow-up 2, mean dose 400 mg, mean 177 days of treatment
[10] = patient two, early titration phase, 50 mg zonisamide, simplified sleep recording

**Q.** With `NS(=O)(=O)Cc1noc2ccccc12` [zonisamide, 1,2-benzisoxazole-3-methanesulfonamide] as the compound, how does the “Sat <90%/hr (number of episodes reaching an oxygen saturation below 90% per hour of sleep)” value [1, 4] read?
**A.** <1 per hour of sleep

**Q.** What about the B-gluc (blood glucose concentration) [1, 4] of the same compound?
**A.** 6.4 mM

**Q.** And the “CSAI (central sleep apnea index)” value [1, 4]?
**A.** 2 per hour of sleep

**Q.** And the “AI (apnea index, number of obstructive apneas per hour of sleep)” value [1, 4]?
**A.** 4 per hour of sleep

**Q.** What about the “HI (hypopnea index, number of obstructive hypopneas per hour of sleep)” value [1, 4] of the same compound?
**A.** 9 per hour of sleep

**Q.** What about the “BMI (body mass index)” value [1, 4] of the same compound?
**A.** 26.4 kg/m^2

**Q.** And the “AHI (apnea/hypopnea index)” value [1, 4]?
**A.** 13 per hour of sleep

**Q.** What about the “MinSat (lowest oxygen saturation value reached during the sleep recording)” value [1, 4] of the same compound?
**A.** 89

**Q.** What about the “DBP (diastolic blood pressure)” value [1, 4] of the same compound?
**A.** 89 mmHg

**Q.** What about the “SBP (systolic blood pressure)” value [1, 4] of the same compound?
**A.** 155 mmHg

**Q.** What about the “Sat <90%/hr (number of episodes reaching an oxygen saturation below 90% per hour of sleep)” value [1, 5] of the same compound?
**A.** 0 per hour of sleep

**Q.** What about the B-gluc (blood glucose concentration) [1, 5] of the same compound?
**A.** 5.9 mM

**Q.** What about the “CSAI (central sleep apnea index)” value [1, 5] of the same compound?
**A.** 2 per hour of sleep

**Q.** What about the “AI (apnea index, number of obstructive apneas per hour of sleep)” value [1, 5] of the same compound?
**A.** 2 per hour of sleep

**Q.** What about the “HI (hypopnea index, number of obstructive hypopneas per hour of sleep)” value [1, 5] of the same compound?
**A.** 6 per hour of sleep

**Q.** What about the “BMI (body mass index)” value [1, 5] of the same compound?
**A.** 25.6 kg/m^2

**Q.** What about the “AHI (apnea/hypopnea index)” value [1, 5] of the same compound?
**A.** 8 per hour of sleep

**Q.** And the “MinSat (lowest oxygen saturation value reached during the sleep recording)” value [1, 5]?
**A.** 90

**Q.** And the “DBP (diastolic blood pressure)” value [1, 5]?
**A.** 85 mmHg

**Q.** What about the “SBP (systolic blood pressure)” value [1, 5] of the same compound?
**A.** 145 mmHg

**Q.** What about the “change in total sleep time” value ([1]; after zonisamide) of the same compound?
**A.** no clinically significant change

**Q.** And the side effects ([1]; during the study period, up to 600 mg orally, 90 days)?
**A.** No side effects were reported

**Q.** What about the “number of mixed events” value [1, 6] of the same compound?
**A.** decreased in proportion to the number of obstructive events

**Q.** And the “polysomnographically recorded sleep variables” value [1, 6]?
**A.** not systematically affected

**Q.** What about the apnea reducing effect ([1]; obstructive and central events) of the same compound?
**A.** potent apnea reducing effect

**Q.** What about the daytime sleepiness ([1]; spontaneous reporting, already after 10 days of treatment) of the same compound?
**A.** markedly reduced

**Q.** What about the blood glucose concentration [1, 7] of the same compound?
**A.** gradually reduced

**Q.** And the blood pressure [1, 7]?
**A.** gradually reduced

**Q.** And the nocturnal snoring episodes ([1]; subjective and spouse reports, soon after onset of treatment)?
**A.** clear reduction

**Q.** What about the half-life in plasma [2] of the same compound?
**A.** about 60 hrs

**Q.** And the apnea reducing effect ([3]; dosing levels from below 100 mg up to 600 mg daily)?
**A.** potent apnea reducing effect

**Q.** What about the “AHI, mean for all patients” value [3, 8] of the same compound?
**A.** 25 per hour of sleep

**Q.** What about the “BMI, mean for all patients” value [3, 8] of the same compound?
**A.** 31 kg/m^2

**Q.** And the “Sat. min, mean for all patients” value [3, 8]?
**A.** 85

**Q.** And the “AHI, mean for all patients” value [3, 9]?
**A.** 22 per hour of sleep

**Q.** And the “BMI, mean for all patients” value [3, 9]?
**A.** 30 kg/m^2

**Q.** And the “Sat. min, mean for all patients” value [3, 9]?
**A.** 86

**Q.** What about the AHI ([3]; patient one, follow-up 1, dose 100 mg, 7 days of treatment, baseline 20) of the same compound?
**A.** 12 per hour of sleep

**Q.** And the BMI ([3]; patient one, follow-up 1, dose 100 mg, 7 days of treatment, baseline 28.3)?
**A.** 28.3 kg/m^2

**Q.** What about the “Sat. min (lowest oxygen saturation value reached during the sleep recording)” value ([3]; patient one, follow-up 1, dose 100 mg, 7 days of treatment, baseline 88) of the same compound?
**A.** 85

**Q.** And the AHI ([3]; patient one, follow-up 2, dose 200 mg, 149 days of treatment, baseline 20)?
**A.** 11 per hour of sleep

**Q.** What about the BMI ([3]; patient one, follow-up 2, dose 200 mg, 149 days of treatment, baseline 28.3) of the same compound?
**A.** 27.9 kg/m^2

**Q.** And the “Sat. min (lowest oxygen saturation value reached during the sleep recording)” value ([3]; patient one, follow-up 2, dose 200 mg, 149 days of treatment, baseline 88)?
**A.** 90

**Q.** And the BMI ([3]; patient three, follow-up 1, dose 100 mg, 10 days of treatment, baseline 35.0)?
**A.** 35.1 kg/m^2

**Q.** And the AHI ([3]; patient three, follow-up 1, dose 100 mg, 10 days of treatment, baseline 57)?
**A.** 59 per hour of sleep

**Q.** And the “Sat. min (lowest oxygen saturation value reached during the sleep recording)” value ([3]; patient three, follow-up 1, dose 100 mg, 10 days of treatment, baseline 79)?
**A.** 80

**Q.** What about the BMI ([3]; patient three, follow-up 2, dose 600 mg, 218 days of treatment, baseline 35.0) of the same compound?
**A.** 33.5 kg/m^2

**Q.** What about the AHI ([3]; patient three, follow-up 2, dose 600 mg, 218 days of treatment, baseline 57) of the same compound?
**A.** 53 per hour of sleep

**Q.** What about the “Sat. min (lowest oxygen saturation value reached during the sleep recording)” value ([3]; patient three, follow-up 2, dose 600 mg, 218 days of treatment, baseline 79) of the same compound?
**A.** 78

**Q.** And the AHI [3, 10]?
**A.** 8

**Q.** What about the BMI [3, 10] of the same compound?
**A.** 31.3

**Q.** And the AHI ([3]; patient two, follow-up 1, dose 400 mg, 81 days of treatment, baseline 12)?
**A.** 3 per hour of sleep

**Q.** What about the BMI ([3]; patient two, follow-up 1, dose 400 mg, 81 days of treatment, baseline 31.4) of the same compound?
**A.** 30.7 kg/m^2

**Q.** What about the “Sat. min (lowest oxygen saturation value reached during the sleep recording)” value ([3]; patient two, follow-up 1, dose 400 mg, 81 days of treatment, baseline 86) of the same compound?
**A.** 91

**Q.** What about the AHI ([3]; patient two, follow-up 2, dose 400 mg, 165 days of treatment, baseline 12) of the same compound?
**A.** 3 per hour of sleep

**Q.** What about the BMI ([3]; patient two, follow-up 2, dose 400 mg, 165 days of treatment, baseline 31.4) of the same compound?
**A.** 29.3 kg/m^2

**Q.** What about the “Sat. min (lowest oxygen saturation value reached during the sleep recording)” value ([3]; patient two, follow-up 2, dose 400 mg, 165 days of treatment, baseline 86) of the same compound?
**A.** 90

**Q.** And the daytime sleepiness ([3]; spontaneous reporting by the patients)?
**A.** overall positive effect

**Q.** What about the “polysomnographically recorded sleep variables” value ([3]; three patients, during treatment) of the same compound?
**A.** not systematically affected

**Q.** What about the side effects ([3]; three patients, up to 600 mg, up to an average of 177 days) of the same compound?
**A.** No significant side effects were reported

Reference: patent US7655681B2, “Method of treating and diagnosing sleep disordered breathing and means for carrying out the method” (priority 2004, dated 2010)
